The source of these data is EPA's ToxValDB 9.5 (doi:10.2903/j.efsa.2009.178r).

Data set [1] has as its system Typhlodromus pyri. Description: LR50; higher = less toxic. The conditions noted are these: not reported; mortality.
Data set [2] relates to Aphidius rhopalosiphi. In words: LR50; higher = less toxic. The conditions noted are these: not reported; mortality.
Data set [3] deals with Oncorhynchus mykiss.
Data set [4] deals with Apis mellifera. The conditions noted are these: acute, mortality.
Data set [5] has as its system Canidae. The conditions noted are these: chronic; duration: 1 years; oral; Dog Other; histopathology: nonneoplastic.
In data set [6] the test system is Procambarus sp. As to conditions: acute; duration: 96 hours; mortality.
Data set [7] concerns Daphnia magna. As to conditions: chronic/long-term; duration: 21 days; mobility.
Data set [8] concerns Colinus virginianus. The conditions noted are these: acute; oral; diet; mortality.
In data set [9] the test system is Anas platyrhynchos.
Data set [10] relates to Tagia sp. As to conditions: acute; mortality.
Data set [11] deals with Rattus norvegicus.

Regarding `COC(=O)c1ccccc1CS(=O)(=O)NC(=O)Nc1nc(OC)cc(OC)n1` [Bensulfuron-methyl], the LR50 in [1] and in [2] was over 600 g/ha throughout. The LC50 in data set [3] (acute, duration: 96 hours, mortality) was over 66 µg/mL; in data set [6], over 71 µg/mL; in [8], over 1680 mg/kg-day; in [9] (short-term, oral, feed, mortality), over 1690 mg/kg-day; in data set [10], over 1000 mg/kg. Moreover, the NOEC in data set [3] (chronic/long-term, duration: 90 days, other) is 1.5 mg/L; in data set [7], 12 mg/L; in data set [9] (reproductive) it was 83 mg/kg-day. The LD50 in data set [4] (dermal) is over 100 µg/piece; in [4] (oral, unspecified) it was over 51.4 µg/piece; in data set [9] (acute, oral, unspecified, M/F, mortality), at least 2510 mg/kg; in [11] (acute, oral, mortality) it was at least 5000 mg/kg. The compound further registered a no-observed-adverse-effect level (NOAEL) in data set [5] of 19.9 mg/kg-day. The same compound showed an NOEL in [11] (reproduction developmental, reproduction) of 20.9 mg/kg-day.

Usually NOAEL stands for the highest tested level that showed no adverse finding.
